# Entries after “also recorded” stand apart in the source; their conditions may differ.
# What was measured:
# healthy volunteers = settings: human, in vivo
# Text: NMDA receptor antagonists were reported to produce serious side effects in healthy humans.
# [1] = system: adult rats treated with rt-PA after 3-h tMCAO; assay: rt-PA-induced hemorrhagic transformation following 3-h occlusion of middle cerebral artery (tMCAO); assay type: in vivo, rat; settings: for hemorrhage / hemorrhagic transformation in the brain: 10 mg/kg rt-PA IV plus 30 mg/kg IV after reperfusion, 3-h tMCAO, 24 h, potassium salt
# Description: Male Sprague-Dawley rats (300-350 g; 15-16 animals/group) were anesthetized with chloral hydrate (400 mg/kg, IP) and the anesthesia was sustained for about 1.5 h during the procedure. The rectal temperature was recorded and maintained at 37.0-37.5° C. using a rectal probe and homoeothermic blanket controlled by a temperature control unit (Letica Scientific Instruments). Occlusion of the MCA was done according to the previous report (Gwag et al., 2007). Briefly, the right common carotid artery, external carotid artery (ECA), and internal carotid artery (ICA) were exposed. A length of 4-0 monofilament nylon suture (17 mm, pre-coated with silicone) with its tip rounded by heating near a flame was advanced from the lumen of the ICA until it blocked the origin of the middle cerebral artery (MCA). The suture remained for 3 h and was withdrawn for reperfusion. After 24 h, the brain was removed immediately, placed in the fixative for 15 min, and used for further analysis.
# Animals received transient focal cerebral ischemia for 3 h as described above with intravenous administration of 10 mg/kg rt-PA or 10 mg/kg rt-PA plus 30 mg/kg nelonemdazK after reperfusion. rt-PA (10 mg/kg) dissolved in water for injection ([…]) was injected through femoral vein over 20 min from 5 min after reperfusion. NelonemdazK (30 mg/kg) dissolved in saline (6 mg/mL; 5 mL/kg) was injected through femoral vein over 5 min immediately after the end of rt-PA infusion.
# [2] = system: mice treated with rt-PA after embolic stroke; assay: Embolic stroke in mice treated with rt-PA: hemorrhage and brain injury at 24 h; assay type: in vivo; settings: 10 mg/kg rt-PA plus nelonemdazK IV at 4.5 hours after embolic stroke, analyzed at 24 hours
# Description: Embolic stroke was induced by injection of blood clot into the right internal carotid artery of mice. Animals received intravenous administration of saline, 10 mg/kg rt-PA, or 10 mg/kg rt-PA plus nelonemdazK through femoral vein at 4.5 hours after embolic stroke. rt-PA was dissolved in water and injected over 20 min. NelonemdazK was dissolved in saline and injected over 5 min immediately after rt-PA infusion. Hemorrhage and brain injury were analyzed 24 hours after embolic stroke.
# [3] = system: acute ischemic stroke patients; assay: SONIC phase II trial: acute ischemic stroke patients receiving endovascular thrombectomy with or without rt-PA; assay type: in vivo, human; settings: for ratio of mRS 0-2 or 0: vs placebo, potassium salt
# Description: The SONIC trial was to examine efficacy and safety of the intravenous infusions of nelonemdazK for acute ischemic stroke patients (adults≥19) receiving endovascular thrombectomy with or without rt-PA within 8 hours of onset as described (Hong et al., 2018). A total of 209 patients were enrolled for the SONIC trial and allocated randomly in a double-blinded manner to one of 3 groups for the intravenous infusions of test drugs as follows: (Group A) placebo [0.9% normal saline], (Group B) 2,750 mg nelonemdazK for 5 days [500 mg for 1st infusion followed by 2nd-10th infusions approximately at 12 h intervals (250 mg for each infusion)], and (Group C) 5,250 mg nelonemdazK for 5 days [750 mg for 1st infusion followed by 2nd-10th infusions approximately at 12 h intervals (500 mg for each)].
# Acute ischemic stroke patients due to occlusion in carotid internal carotid artery system within 8 hours of onset were enrolled. Enrolled patients presented the National Institutes of Health Stroke Scale (NIHSS: range 0-42, with higher scores indicating greater stroke severity) scores and Alberta stroke program early CT score (ASPECTS: a 10-point quantitative topographic CT scan score used in patients with middle cerebral artery (MCA) stroke, with lower scores indicating larger cerebral infarction)≥6.
# For statistical analysis, Cochran-Mantel-Haenszel (CMH) chi-square test was conducted to compare distribution and ratio of mRS scores for each group at 1, 4, and 12 weeks after drug treatment. Ordinal logistic regression was applied with multivariate analysis controlling confounding variables that may cause difference between the groups in participating institutions and baseline scores. In addition, generalized estimating equation (GEE) analysis was conducted to compare the changes between groups in mRS scores measured at 1, 4, and 12 weeks after drug treatment. For the analysis of the Barthel Index score and adverse events, chi-square test or Fisher exact test was conducted to compare difference between groups at 1, 4, and 12 weeks after drug treatment.
# Acute ischemic stroke patients who presented the baseline NIHSS score≥8 and the mRS distribution of 2-5 were enrolled for the SONIC trial. Out of a total of 209 patients, 152 patients successfully completed procedures including drug treatment for 5 days and scheduled analysis over 12 weeks after drug treatment according to the clinical protocol approved by Korea Ministry of Food and Drug Safety. […] The shift analysis implies that administration of nelonemdazK reduces disability in acute stroke patients treated with endovascular thrombectomy.
compound,measurement,setting,value
"O=C([O-])c1cc(NCc2c(F)c(F)c(C(F)(F)F)c(F)c2F)ccc1O.[K+] [nelonemdazK, 2-Hydroxy-5-(2,3,5,6-tetrafluoro-4-trifluoromethylbenzylamino)benzoic acid potassium salt]",Number of subjects showing abnormal behavior: Agitation,healthy volunteers,0
same,Number of subjects showing abnormal behavior: Catatonia,healthy volunteers,0
same,Number of subjects showing abnormal behavior: Confusion,healthy volunteers,0
same,Number of subjects showing abnormal behavior: Hallucination,healthy volunteers,0
same,Number of subjects showing abnormal behavior: Paranoia,healthy volunteers,0
same,rate of hemorrhagic transformation,"[1]; 10 mg/kg rt-PA IV plus 30 mg/kg IV after 3-h tMCAO, p<0.05 Fisher's exact test",significantly reduced
same,hemorrhage / hemorrhagic transformation in the brain,[1]; listed as NelonemdazK,prevented hemorrhage
same,hemorrhage / hemorrhagic transformation in the brain,[1],prevents hemorrhagic transformation
same,levels of hemoglobin in the ischemic brain region,[2],significantly reduced
same,hemorrhage / hemorrhagic transformation in the ischemic brain region,"[2]; potassium salt, 10 mg/kg",significantly reduced; also recorded: prevents hemorrhagic transformation
same,ratio of mRS 0,"[3]; 1 week, high dose (5,250 mg) (placebo 2.04%, p=0.01)",16.67%
same,ratio of mRS 0,"[3]; 1 week, low dose (2,750 mg) (placebo 2.04%, p=0.04)",12.96%
same,ratio of mRS 0,"[3]; 4 weeks, high dose (5,250 mg) (placebo 6.12%, p=0.007)",26.67%
same,ratio of mRS 0,"[3]; 4 weeks, low dose (2,750 mg) (placebo 6.12%, p=0.04)",20%
same,ratio of mRS 0,"[3]; 12 weeks, high dose (5,250 mg) (placebo 8.16%, p=0.004)",31.25%
same,ratio of patients with Barthel Index score higher than 90,"[3]; 12 weeks, high dose (placebo 41.86%, p<0.05)",64.44%
same,ratio of mRS 0,"[3]; 12 weeks, low dose (2,750 mg) (placebo 8.16%, p=0.03)",23.64%
same,ratio of patients with Barthel Index score higher than 90,"[3]; 12 weeks, low dose (placebo 41.86%)",54.72%
same,drug-related adverse events,"[3]; IV up to 5,250 mg for 5 days, 12 weeks follow-up",no drug-related adverse events
same,ratio of mRS 0-2 or 0,"[3]; high dose (5,250 mg, N=48), over 12 weeks",further increased; also recorded: increases
same,ratio of mRS 0-2 or 0,"[3]; low dose (2,750 mg, N=55), over 12 weeks",further increased; also recorded: increases
same,occurrence of adverse events and serious adverse events vs placebo,[3]; over 12 weeks,no difference
same,mortality rate,"[3]; over 12 weeks, high dose group (N=67) (placebo 8.57%)",4.48%
same,mortality rate,"[3]; over 12 weeks, low dose group (N=71) (placebo 8.57%)",4.23%
